According to PubChem BioAssay (NCI):
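Five compound concentrations were applied to cells in 96-well plates for 48 hours; endpoints were derived by simple linear interpolation of the resulting dose-response curve. TGI: concentration producing complete growth inhibition.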

Columns and labels:
Assay in all cases: inhibition of tumour cell growth, NCI panel, 48 h
[1] = system: 786-0 renal
[2] = system: A498 renal
[3] = system: A549 NSCLC
[4] = system: ACHN renal
[5] = system: CAKI-1 renal
[6] = system: CCRF-CEM leukemia
[7] = system: COLO 205 colon
[8] = system: DLD-1 colon
[9] = system: DMS 114 small cell lung
[10] = system: DMS 273 small cell lung
[11] = system: EKVX NSCLC
[12] = system: HCC-2998 colon
[13] = system: HCT-116 colon
[14] = system: HCT-15 colon
[15] = system: HOP-18 NSCLC
[16] = system: HOP-62 NSCLC
[17] = system: HOP-92 NSCLC
[18] = system: HT29 colon
[19] = system: IGROV1 ovarian
[20] = system: K-562 leukemia
[21] = system: KM12 colon
[22] = system: KM20L2 colon
[23] = system: LOX IMVI melanoma
[24] = system: LXFL 529 NSCLC
[25] = system: M14 melanoma
[26] = system: M19-MEL melanoma
[27] = system: MALME-3M melanoma
[28] = system: MOLT-4 leukemia
[29] = system: NCI-H226 lung
[30] = system: NCI-H23 lung
[31] = system: NCI-H460 lung
[32] = system: OVCAR-3 ovarian
[33] = system: OVCAR-4 ovarian
[34] = system: OVCAR-5 ovarian
[35] = system: OVCAR-8 ovarian
[36] = system: RPMI-8226 leukemia
[37] = system: RXF 393 renal
[38] = system: SF-268 CNS
[39] = system: SF-295 CNS
[40] = system: SF-539 CNS
[41] = system: SK-MEL-28 melanoma
[42] = system: SK-MEL-5 melanoma
[43] = system: SK-OV-3 ovarian
[44] = system: SN12C renal
[45] = system: SNB-19 CNS
[46] = system: SNB-75 CNS
[47] = system: SNB-78 CNS
[48] = system: SR leukemia
[49] = system: SW-620 colon
[50] = system: TK-10 renal
[51] = system: U251 CNS
[52] = system: UACC-257 melanoma
[53] = system: UACC-62 melanoma
[54] = system: UO-31 renal
[55] = system: HL-60(TB) leukemia
[56] = system: NCI-H522 lung
[57] = system: SK-MEL-2 melanoma

Measured: TGI

COC(=O)C1=C(c2cc(OC)c(OC)c(OC)c2)OC(c2ccc3c(c2)OCO3)C1 (stereo not given)
29.5 µM: [19]
58.2 µM: [22]
52.2 µM: [2]
35.5 µM: [53]
90 µM: [24]
> 100 µM: [1] | [3] | [4] | [5] | [6] | [8] | [10] | [12] | [13] | [14] | [15] | [16] | [17] | [20] | [21] | [23] | [25] | [26] | [27] | [28] | [29] | [31] | [33] | [34] | [35] | [36] | [37] | [38] | [39] | [40] | [41] | [42] | [43] | [44] | [45] | [46] | [47] | [50] | [51] | [52] | [54]
45.7 µM: [9]
97.5 µM: [18]
98.9 µM: [30]
26.8 µM: [7]
67.3 µM: [49]
62.8 µM: [48]
99.2 µM: [11]
81.7 µM: [32]

COc1ccccc1-n1c(C)nc2ccccc2c1=O
> 100 µM: [1] | [2] | [3] | [4] | [5] | [6] | [7] | [8] | [9] | [10] | [11] | [12] | [13] | [14] | [55] | [15] | [16] | [17] | [18] | [19] | [20] | [21] | [22] | [23] | [24] | [25] | [26] | [27] | [28] | [29] | [30] | [31] | [56] | [32] | [33] | [34] | [35] | [37] | [38] | [39] | [40] | [57] | [41] | [42] | [43] | [44] | [45] | [46] | [47] | [48] | [49] | [50] | [51] | [52] | [53] | [54]
